The structures appear in SMILES notation. Calls of active or inactive are those of the source. The calls are words filed in the database; no cut-off is given here.

One data set has as its system Rattus norvegicus. Put plainly: Increase in intracavernous pressure/blood pressure in Sprague-Dawley rat model of erection at 10 mg/kg, po measured 30 mins post dose. It counts as functional, organism-based. Also on record: dose 10 mg/kg.
Data set [1] in a line: Inhibition of dog adrenal gland PDE2 by [3H]cGMP based tritium scintillation proximity assay. It counts as tissue-based, Canis lupus familiaris.
A short description of data set [2]: Oral bioavailability in Sprague-Dawley rat at 10 mg/kg by LC-MS/MS method. The conditions noted are these: in vivo. It counts as ADME, organism-based.
For data set [3], the target named is High affinity 3',5'-cyclic-AMP phosphodiesterase 7A (Homo sapiens, UniProt Q13946).
Sequence of High affinity 3',5'-cyclic-AMP phosphodiesterase 7A (Q13946 whole entry): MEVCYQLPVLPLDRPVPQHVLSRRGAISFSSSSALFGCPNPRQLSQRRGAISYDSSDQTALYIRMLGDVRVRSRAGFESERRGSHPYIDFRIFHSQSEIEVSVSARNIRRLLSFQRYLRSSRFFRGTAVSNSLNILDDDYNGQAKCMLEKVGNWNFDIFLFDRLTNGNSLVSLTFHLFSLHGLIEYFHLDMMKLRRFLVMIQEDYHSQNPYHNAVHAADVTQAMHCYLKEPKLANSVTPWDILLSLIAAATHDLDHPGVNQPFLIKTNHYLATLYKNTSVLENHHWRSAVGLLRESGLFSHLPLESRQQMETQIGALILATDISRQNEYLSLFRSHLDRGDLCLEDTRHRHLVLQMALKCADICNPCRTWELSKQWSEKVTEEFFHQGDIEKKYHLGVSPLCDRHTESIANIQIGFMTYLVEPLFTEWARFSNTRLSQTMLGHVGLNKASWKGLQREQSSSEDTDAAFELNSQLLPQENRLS
A short description of data set [4]: AUC (0 to 10 hrs) in Sprague-Dawley rat at 10 mg/kg, po by LC-MS/MS method. It counts as ADME, organism-based. Details: time < 10 hr, dose 10 mg/kg, route oral. The conditions noted are these: plasma.
A short description of data set [5]: MRT (0 to 10 hrs) in Sprague-Dawley rat at 5 mg/kg, iv by LC-MS/MS method. It counts as ADME, organism-based. Details: dose 5 mg/kg, route intravenous. The following applies: in vivo.
Data set [6] can be described thus: MRT (0 to 10 hrs) in Sprague-Dawley rat at 10 mg/kg, po by LC-MS/MS method. It counts as ADME, organism-based. Also on record: dose 10 mg/kg, route oral. The following applies: in vivo.
Data set [7] in a line: Half life in Sprague-Dawley rat at 10 mg/kg, po by LC-MS/MS method. It counts as ADME, organism-based. Also on record: dose 10 mg/kg, route oral. The following applies: in vivo.
A short description of data set [8]: Clearance in Sprague-Dawley rat at 5 mg/kg, iv by LC-MS/MS method. Details: dose 5 mg/kg, route intravenous. It counts as ADME, organism-based. The following applies: in vivo.
Data set [9] in a line: AUC (0 to 10 hrs) in Sprague-Dawley rat at 5 mg/kg, iv by LC-MS/MS method. Also on record: time < 10 hr, dose 5 mg/kg, route intravenous. It counts as ADME, organism-based. The conditions noted are these: plasma.
Data set [10] in a line: Half life in Sprague-Dawley rat at 5 mg/kg, iv by LC-MS/MS method. It counts as ADME, organism-based. Also on record: dose 5 mg/kg, route intravenous. The conditions noted are these: in vivo.
Data set [11] in a line: Cmax in Sprague-Dawley rat at 10 mg/kg, po by LC-MS/MS method. Details: dose 10 mg/kg, route oral. It counts as ADME, organism-based. The conditions noted are these: in vivo.
Data set [12] can be described thus: Tmax in Sprague-Dawley rat at 10 mg/kg, po by LC-MS/MS method. It counts as ADME, organism-based. Details: dose 10 mg/kg, route oral. The following applies: in vivo.
A short description of data set [13]: Volume of distribution in Sprague-Dawley rat at 5 mg/kg, iv by LC-MS/MS method. It counts as ADME, organism-based. Details: dose 5 mg/kg, route intravenous. The following applies: in vivo.

Take `CCCc1nn(C)c2c(=O)[nH]c(-c3cc(S(=O)(=O)N4CCN(C)CC4)ccc3OCC)nc12`: the result in the data set on Rattus norvegicus was Active. For the same molecule, the IC50 is > 10 µM in data set [1] and 4.69 µM in data set [3]. Also, the bioavailability in data set [2] was found to be 23%.

For `CCCOc1ccc(S(=O)(=O)N2CCN(C)CC2)cc1-c1nc(CC)c(CC)c(=O)[nH]1`, the AUC(0-t) at 10 h worked out at 895 ng·h/mL in [4] and 4470 ng·h/mL in data set [9]. Further, the MRT last in data set [5] was determined as 0.81 h; in data set [6], 3.09 h. In addition, the half-life was 3.94 h in [7] and 1.29 h in data set [10]. Also, the clearance in data set [8] was 19.5 mL/min/kg. Besides, in the data set on Rattus norvegicus, the result was Active. For the same molecule, the peak level in data set [11] (Cmax) was 468 ng/mL. In [12], the time of peak concentration (Tmax) was 0.25 h. Moreover, the Vd in [13] stood at 2.07 L/kg. Further, the bioavailability in data set [2] worked out at 10%.

These data come from ChEMBL document CHEMBL2176889, “Design, synthesis, and pharmacological evaluation of monocyclic pyrimidinones as novel inhibitors of PDE5” (J Med Chem, 2012).
